Experimental data: ChEMBL document CHEMBL1140459, “Synthesis of poison-frog alkaloids 233A, 235U, and 251AA and their inhibitory effects on neuronal nicotinic acetylcholine receptors” (Bioorg Med Chem Lett, 2007)

Tests used:
[1] = molecular target: Neuronal acetylcholine receptor subunit alpha-7 (Homo sapiens, UniProt P36544); assay: Inhibition of alpha-7 nAchR expressed in Xenopus laevis oocytes assessed as acetylcholine-induced current by voltage-clamp method; type: functional, cell-based, Oocyte
[2] = molecular target: Neuronal acetylcholine receptor; alpha4/beta2 (Homo sapiens, UniProt P17787+P43681); assay: Inhibition of alpha4beta2 nAchR expressed in Xenopus laevis oocytes assessed as acetylcholine-induced current by voltage-clamp method; type: cell-based, Oocyte
Neuronal acetylcholine receptor; alpha4/beta2, sequence (P17787 whole entry): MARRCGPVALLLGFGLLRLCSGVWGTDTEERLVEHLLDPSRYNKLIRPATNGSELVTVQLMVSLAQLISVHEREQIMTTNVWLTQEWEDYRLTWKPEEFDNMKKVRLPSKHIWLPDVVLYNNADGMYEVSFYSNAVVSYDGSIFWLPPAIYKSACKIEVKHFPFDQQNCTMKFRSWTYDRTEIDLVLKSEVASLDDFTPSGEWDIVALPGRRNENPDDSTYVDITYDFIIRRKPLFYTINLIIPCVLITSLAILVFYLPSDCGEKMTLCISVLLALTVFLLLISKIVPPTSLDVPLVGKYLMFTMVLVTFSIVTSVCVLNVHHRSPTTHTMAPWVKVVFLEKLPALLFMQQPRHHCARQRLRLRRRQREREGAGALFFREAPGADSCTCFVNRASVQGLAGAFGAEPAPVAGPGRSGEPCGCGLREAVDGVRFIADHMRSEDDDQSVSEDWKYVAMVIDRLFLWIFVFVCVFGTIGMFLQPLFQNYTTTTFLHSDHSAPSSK
Neuronal acetylcholine receptor; alpha4/beta2, sequence (P43681 whole entry): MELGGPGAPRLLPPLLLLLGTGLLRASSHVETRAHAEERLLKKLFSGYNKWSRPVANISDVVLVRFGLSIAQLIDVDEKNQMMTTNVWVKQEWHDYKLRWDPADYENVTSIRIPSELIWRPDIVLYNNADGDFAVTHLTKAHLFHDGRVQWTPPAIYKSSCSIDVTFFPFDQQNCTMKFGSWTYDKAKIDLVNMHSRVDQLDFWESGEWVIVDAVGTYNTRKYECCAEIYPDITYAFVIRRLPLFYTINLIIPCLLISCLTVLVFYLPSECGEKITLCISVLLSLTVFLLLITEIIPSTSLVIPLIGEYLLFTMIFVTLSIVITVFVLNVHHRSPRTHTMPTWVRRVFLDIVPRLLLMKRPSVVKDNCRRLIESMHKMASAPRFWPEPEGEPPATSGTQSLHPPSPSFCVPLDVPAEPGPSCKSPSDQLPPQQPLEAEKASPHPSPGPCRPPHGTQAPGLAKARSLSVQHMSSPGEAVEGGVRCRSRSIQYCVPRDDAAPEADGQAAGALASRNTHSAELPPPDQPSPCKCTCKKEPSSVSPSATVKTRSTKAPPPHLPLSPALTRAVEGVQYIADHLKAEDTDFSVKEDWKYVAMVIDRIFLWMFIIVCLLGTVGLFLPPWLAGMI

Neuronal acetylcholine receptor subunit alpha-7, sequence (P36544 whole entry): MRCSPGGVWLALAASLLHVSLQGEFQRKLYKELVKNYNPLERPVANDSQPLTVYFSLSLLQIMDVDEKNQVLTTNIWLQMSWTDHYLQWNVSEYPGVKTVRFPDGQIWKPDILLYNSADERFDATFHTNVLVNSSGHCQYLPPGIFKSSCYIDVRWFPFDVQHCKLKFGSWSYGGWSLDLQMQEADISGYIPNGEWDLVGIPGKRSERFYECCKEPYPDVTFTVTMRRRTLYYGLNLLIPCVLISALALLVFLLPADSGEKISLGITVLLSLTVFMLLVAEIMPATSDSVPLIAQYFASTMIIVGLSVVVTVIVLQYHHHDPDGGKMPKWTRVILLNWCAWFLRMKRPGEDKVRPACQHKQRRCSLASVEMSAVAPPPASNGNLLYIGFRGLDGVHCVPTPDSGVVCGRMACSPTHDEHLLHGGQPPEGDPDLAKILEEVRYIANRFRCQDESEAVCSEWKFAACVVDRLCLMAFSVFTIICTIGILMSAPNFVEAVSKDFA

Compound	IC50 [1] [µM]	IC50 [2] [µM]
CCCCCC[C@@H]1CC[C@@H](CC)[C@@H]2CCCCN12	4.1	2.5
C#CCCC[C@@H]1CC[C@@H](CC)[C@@H]2CCCCN12	7.4	5.1
C=CCCC[C@@H]1CC[C@@H](CC)[C@@H]2CCCCN12	5.2	3.5
